# US20200253990A1, “ASPIRIN FORMULATION FOR INCREASED EFFICACY” (Vitalis LLC, priority 2013, published 2020)
# Key:
# [1] = tested on: Healthy human patients who experience non-specific headaches; experiment: Headache rated on 10-point scale, aspirin alone, Example 5; assay type: in vivo; conditions: 30 minutes
# Experimental: (§1) Healthy human patients who experience non-specific headaches were recruited for this study. […] Each patient was asked to rate his or her headache on the 10-point scale (see FIG. 3). The patient then swallowed 891 mg of aspirin (11 tablets of 81 mg each) without chewing. Each patient was asked to rate his or headache again on the 10-point scale 30-minutes later. […] The patient then chewed 891 mg of aspirin (11 tablets of 81 mg each) and rubbed the aspirin in their oral mucosa, lips, gums and mouth and was asked to be careful not to swallow any of the aspirin, but to wash out their mouth afterwards with a sip of soda and spitting out such that no aspirin was swallowed. Each patient was asked to rate his or headache again on the 10-point scale 30-minutes later. Not until at least two days later did Period III start. […] The patient then chewed 891 mg of aspirin (11 tablets of 81 mg each) and rubbed the aspirin in their oral mucosa, lips, gums and mouth for about 10 seconds or until half was dissolved, then to take a sip of soda to wash the rest, but this time to swallow the soda and aspirin such that half was swallowed. Each patient was asked to rate his or headache again on the 10-point scale 30-minutes later.
# [2] = tested on: Healthy human patients; experiment: Niacin flush rated on the Global Flush Severity Scale (GFSS), Example 1; assay type: in vivo; conditions: then 500 mg niacin
# Experimental: Healthy human patients were recruited for this study. […] Each patient was asked to rate his or her flush on the Global Flush Severity Scale (GFSS) (see FIG. 1 and Paolini et al. Int. J. Clin. Pract. 62(6):896-904 (2008)), when the flush completely resolved. The Global Flushing Severity Score measures, overall, in the previous 24 hours, how each patient rates the flushing symptoms, including redness, warmth, tingling, and itchiness of the skin. […] After the flush completely resolved, then each patient recorded his or her GFSS flush rating. Not until at least two days later did Period III start. At Period III, each patient was asked to not swallow the orally administered aspirin (81 mg) but to allow the aspirin to be absorbed through the oral mucosa. The aspirin was in powdered form and the remaining aspirin in the mouth was washed out with water. […] Still, the flush was rated (GFSS) after it was resolved. […] The flush was then rated (GFSS) after it completely resolved.
# [3] = cited from earlier work
# [4] = tested on: Healthy human patients who experience non-specific headaches; experiment: Headache rated on 10-point scale, aspirin with acetaminophen and caffeine, Example 4; assay type: in vivo; conditions: 30 minutes
# Experimental: as §1, with “486” for “891”, “(6” for “(11”, “chewing, immediately followed by swallowing a combination of pill 1000 mg acetaminophen and 130 mg caffeine.” for “chewing.”, “swallowed. This was immediately followed by the patient swallowing a combination pill of 1000 mg acetaminophen and 130 mg caffeine.” for “swallowed.”
# [5] = Period II: 81 mg aspirin swallowed
# [6] = Period IV: 81 mg aspirin half mucosally absorbed and half swallowed
SMILES,decrease in headache ([1]; Period I: 891 mg aspirin swallowed),"decrease in headache ([1]; Period II: 891 mg aspirin chewed, oral mucosa only, none swallowed)","decrease in headache ([1]; Period III: 891 mg aspirin half dissolved in mouth, half swallowed)","Global Flush Severity Scale (GFSS) average score [2, 5]","reduction of flush severity from Period I [2, 5]",Global Flush Severity Scale (GFSS) average score ([2]; Period III: 81 mg aspirin mucosally absorbed (not swallowed)),reduction of flush severity from Period I ([2]; Period III: 81 mg aspirin mucosally absorbed),"Global Flush Severity Scale (GFSS) average score [2, 6]","reduction of flush severity from Period I [2, 6]",time to peak of aspirin serum levels following administration ([3]; GI-absorbed aspirin),decrease in headache ([4]; Period I: 486 mg aspirin swallowed + 1000 mg acetaminophen and 130 mg caffeine),"decrease in headache ([4]; Period II: 486 mg aspirin chewed, oral mucosa only, none swallowed + 1000 mg acetaminophen and 130 mg caffeine)","decrease in headache ([4]; Period III: 486 mg aspirin half dissolved in mouth, half swallowed + 1000 mg acetaminophen and 130 mg caffeine)","time within which most of the elimination from the serum occurs ([3]; salicylic acid, metabolite of aspirin)"
"CC(=O)Oc1ccccc1C(=O)O [aspirin, acetylsalicylic acid]",53%,57%,86%,6.88,18%,5.06,40%,3.94,53%,15 to 20 min,55%,62%,77%,–
O=C(O)c1ccccc1O [salicylic acid],–,–,–,–,–,–,–,–,–,–,–,–,–,≤ 20 min
